From patent publication US5591741A, “Fungicidal spiroheterocyclic derivatives” (American Cyanamid Company, priority 1993, dated 1997)

What was measured:
Botrytis cinerea = test: Direct protectant activity against broad bean grey mould (BCB); format: in vivo; details: direct protectant foliar spray, 600 ppm, 4 days
Method in brief: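 Protectant foliar test: lesion coverage assessed 4 days after inoculation and rated relative to untreated or diluent-sprayed plants. Compound applied at 600 ppm to cv The Sutton leaves 24 h before 10^6 conidia/ml suspension; incubation at 22 °C in high humidity.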

[1] = system: Pseudocercosporella herpotrichoides; test: Activity against wheat eyespot in-vitro (PHI); format: cell-based; details: 10 ppm, 10 days, 20° C., mycelial growth
Method in brief: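 Mycelial growth was scored after 10 days at 20 °C against untreated or diluent controls. The broth was half-strength potato dextrose, holding 10 ppm test compound (from acetone) and 5×10^4 fragments/ml of the eyespot fungus.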

Leptosphaeria nodorum = test: Activity against wheat leafspot (LN); format: in vivo; details: direct therapeutic foliar spray, 600 ppm, 6-8 days
Method in brief: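 Therapeutic foliar spray: compound at 600 ppm applied to single-leaf wheat (cv Norman) 24 h after inoculation with 1.5×10^6 conidia/ml. Disease control scored after 6-8 days at 22° C and 70% humidity as lesions per leaf versus untreated or diluent-sprayed controls.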

Rhizoctonia solani = test: Activity against Rhizoctonia in-vitro (RSI); format: cell-based; details: 10 ppm, 10 days, 20° C., mycelial growth
Method in brief: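 Compound at a final 10 ppm (acetone vehicle) in half-strength PDB, inoculated with 5×10^4 fragments/ml of shaken-culture R. solani mycelium. After incubation at 20° C for 10 days, growth scored as a rating versus untreated or diluent-treated controls.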

Plasmopara viticola = test: Antisporulant activity against vine downy mildew (PVA); format: in vivo; details: vine leaves, antisporulant foliar spray, 600 ppm, 750 l/ha
Method in brief: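 Cabernet Sauvignon vines (~8 cm) inoculated on lower leaf surfaces with 5×10^4 zoosporangia/ml, held 24 h at 21° C high humidity then 24 h glasshouse. Infected leaves sprayed underside with 600 ppm compound in 1:1 water/acetone, 0.04% Tween 20, 750 l/ha; 96 h glasshouse, 24 h humidity. Sporulating leaf area rated versus control.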

Alternaria solani = test: Activity against tomato early blight (AS); format: in vivo; details: Table VI; tomato seedlings, contact prophylactic foliar spray, 4 days
Method in brief: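 Plants were challenged with A. solani conidia (10^4 spores/ml) 24 h after a protective foliar spray of compound in 50:50 acetone/water plus 0.04% Tween 20. Held humid at 21° C for 4 days, then percent leaf area with lesions was scored as a rating relative to controls.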

Venturia inaequalis = test: Activity against apple scab in-vitro (VII); format: cell-based; details: 10 ppm, 10 days, 20° C., mycelial growth
Method in brief: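 V. inaequalis propagules (5×10^4/ml, malt agar-grown) were exposed in half-strength PDB to 10 ppm final test compound delivered in acetone. Growth was scored after incubation for 10 days at 20° C, as a rating relative to untreated or diluent-sprayed controls.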

[2] = system: Erysiphe graminis f.sp. hordei; test: Direct protectant activity against barley powdery mildew (EGP); format: in vivo; details: direct protectant foliar spray, 8 days
Method in brief: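 Rating reflects percentage of leaf area with sporulation compared with untreated or diluent-sprayed controls. Protectant spray was applied to single-leaf barley (cv Golden Promise) 24 h before conidia inoculation. Plants were kept at 18 °C and 40% RH throughout, with 8 days of disease development.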

[3] = system: Erysiphe graminis f.sp. hordei; test: Activity against barley powdery mildew, direct therapeutic (EGT); format: in vivo; details: direct therapeutic foliar spray, 600 ppm, up to 7 days
Method in brief: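 A curative spray at 600 ppm was applied to single-leaf Golden Promise barley inoculated with powdery mildew conidia the previous day. After up to 7 days at 18 °C and 40% humidity, disease control was rated from percent leaf area sporulating relative to untreated or diluent-sprayed controls.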

Pyricularia oryzae = format: in vivo; details: rice seedlings, direct therapeutic foliar spray, 600 ppm, 4-5 days
Phytophthora infestans = format: in vivo; details: tomato, direct protectant foliar spray

SMILES	disease control rating BCB (Botrytis cinerea)	disease control rating PHI [1]	disease control rating LN (Leptosphaeria nodorum)	disease control rating RSI (Rhizoctonia solani)	disease control rating PVA (Plasmopara viticola)	disease control rating AS (Alternaria solani)	disease control rating VII (Venturia inaequalis)	disease control rating EGP [2]	disease control rating EGT [3]	disease control rating PO (Pyricularia oryzae)	disease control rating PIP (Phytophthora infestans)
C1CCC2CN(C3COC4(C3)C3CC5CC(C3)CC4C5)CCC2C1 (stereo not drawn) [Compound 113]	1 (about 50-80% disease control)	0 (less than 50% disease control)	0 (less than 50% disease control)	0 (less than 50% disease control)	0 (less than 50% disease control)	0 (less than 50% disease control)	1 (about 50-80% disease control)	1 (about 50-80% disease control)	0 (less than 50% disease control)	0 (less than 50% disease control)	1 (about 50-80% disease control)
CCCCCCN(C)C1COC2(CCC(C(C)(C)CC)CC2)C1 (stereo not drawn) [Compound 60]	0 (less than 50% disease control)	0 (less than 50% disease control)	1 (about 50-80% disease control)	2 (greater than 80% disease control)	0 (less than 50% disease control)	0 (less than 50% disease control)	1 (about 50-80% disease control)	2 (greater than 80% disease control)	2 (greater than 80% disease control)	0 (less than 50% disease control)	0 (less than 50% disease control)
CCC(C)NC1COC2(CCC(C(C)(C)C)CC2)C1 (stereo not drawn) [Compound 65]	2 (greater than 80% disease control)	0 (less than 50% disease control)	0 (less than 50% disease control)	0 (less than 50% disease control)	0 (less than 50% disease control)	0 (less than 50% disease control)	0 (less than 50% disease control)	2 (greater than 80% disease control)	2 (greater than 80% disease control)	0 (less than 50% disease control)	0 (less than 50% disease control)
CCCCCN(CCCC)C1COC2(CCC(C(C)(C)C)CC2)C1 (stereo not drawn) [Compound 74]	0 (less than 50% disease control)	0 (less than 50% disease control)	0 (less than 50% disease control)	0 (less than 50% disease control)	0 (less than 50% disease control)	0 (less than 50% disease control)	0 (less than 50% disease control)	2 (greater than 80% disease control)	2 (greater than 80% disease control)	0 (less than 50% disease control)	0 (less than 50% disease control)
CC(C)(C)C1CCC2(CC1)CC(Nc1ccc(Cl)cc1)CO2 (stereo not drawn) [Compound 23]	0 (less than 50% disease control)	0 (less than 50% disease control)	0 (less than 50% disease control)	0 (less than 50% disease control)	0 (less than 50% disease control)	0 (less than 50% disease control)	2 (greater than 80% disease control)	0 (less than 50% disease control)	0 (less than 50% disease control)	0 (less than 50% disease control)	0 (less than 50% disease control)
CN(CC(C)(C)C)C1COC2(CCC(C(C)(C)C)CC2)C1 (stereo not drawn) [Compound 131]	0 (less than 50% disease control)	0 (less than 50% disease control)	0 (less than 50% disease control)	0 (less than 50% disease control)	0 (less than 50% disease control)	0 (less than 50% disease control)	1 (about 50-80% disease control)	2 (greater than 80% disease control)	2 (greater than 80% disease control)	0 (less than 50% disease control)	0 (less than 50% disease control)
CC(C)(C)C1CCC2(CC1)CC(N1CCCC1)CO2 (stereo not drawn) [Compound 9]	0 (less than 50% disease control)	1 (about 50-80% disease control)	1 (about 50-80% disease control)	0 (less than 50% disease control)	0 (less than 50% disease control)	0 (less than 50% disease control)	1 (about 50-80% disease control)	2 (greater than 80% disease control)	2 (greater than 80% disease control)	0 (less than 50% disease control)	0 (less than 50% disease control)
CCCCc1ccc(NC2COC3(CCC(C(C)(C)C)CC3)C2)cc1 (stereo not drawn) [Compound 25]	0 (less than 50% disease control)	0 (less than 50% disease control)	0 (less than 50% disease control)	0 (less than 50% disease control)	0 (less than 50% disease control)	0 (less than 50% disease control)	0 (less than 50% disease control)	0 (less than 50% disease control)	0 (less than 50% disease control)	0 (less than 50% disease control)	0 (less than 50% disease control)
CCC(CC)N(C)C1COC2(CCC(C(C)(C)C)CC2)C1 (stereo not drawn) [Compound 94]	0 (less than 50% disease control)	0 (less than 50% disease control)	1 (about 50-80% disease control)	1 (about 50-80% disease control)	0 (less than 50% disease control)	0 (less than 50% disease control)	0 (less than 50% disease control)	2 (greater than 80% disease control)	2 (greater than 80% disease control)	0 (less than 50% disease control)	0 (less than 50% disease control)
